In PMC9606921, “Phytochemical Investigation and Biological Studies on Selected Searsia Species” (Plants, 2022):
“And” between values parts separate entries of the source, which are not always exact repeats. Equal entries are not always repeated.

Tests used:
[1] = Oxygen radical absorbance capacity (ORAC) assay; settings: means ± SDs; Trolox equivalents per g of plant extract
Method: ORAC was determined according to a previously described method [46], with some modifications [47]. Fluorescein was used as the fluorescent probe. The loss of fluorescence of fluorescein was an indication of the extent of oxidation through reaction with peroxyl or hydroxyl radicals. The protective effect of an antioxidant was measured by assessing the fluorescence area under the curve plot relative to that of a blank in which no antioxidant was present. The ORAC value was calculated by dividing the area under the sample curve by the area under the Trolox curve, with both areas being corrected by subtracting the area under the blank curve.

[2] = Trolox equivalent antioxidant capacity (ABTS/TEAC) assay; settings: means ± SDs; ABTS, 734 nm, 30 min
Method: The antioxidant power of the extracts was examined using the ABTS radical decolorization assay, which measures the relative antioxidant ability to scavenge the radical ABTS^+ (2.2′-azinobis (3-ethylbenzothiazoline-6-sulfonic acid)), a blue-green chromophore with maximum absorption at 734 nm that decreases in its intensity in the presence of antioxidants.
The ABTS mix solution was diluted with ethanol to read a start-up absorbance of approximately 2.0 (±0.1). The test extracts were prepared by dissolving 1 mg of an extract in 1 mL of methanol, allowed to react with 300 µL ABTS solution in the dark at room temperature for 30 min. The absorbance was measured at 734 nm at 25 °C in a multiplate reader. The results were expressed as µM Trolox equivalents per milligram dry weight (µM TE/g) of the test samples.

[3] = target: T1, α-amylase (procaine pancreas) (Sus scrofa, UniProt P00690); assay: Alpha amylase inhibitory assay; assay type: biochemical; settings: for IC50: concentrations 125.0-1.95 µg/mL, means ± SDs; for activity in screening against alpha amylase: isolated compounds tested at 125.0 µg/mL
T1 construct: purchased Sigma-Aldrich, South Africa; host or cells: pancreas
T1 sequence (P00690 16-511): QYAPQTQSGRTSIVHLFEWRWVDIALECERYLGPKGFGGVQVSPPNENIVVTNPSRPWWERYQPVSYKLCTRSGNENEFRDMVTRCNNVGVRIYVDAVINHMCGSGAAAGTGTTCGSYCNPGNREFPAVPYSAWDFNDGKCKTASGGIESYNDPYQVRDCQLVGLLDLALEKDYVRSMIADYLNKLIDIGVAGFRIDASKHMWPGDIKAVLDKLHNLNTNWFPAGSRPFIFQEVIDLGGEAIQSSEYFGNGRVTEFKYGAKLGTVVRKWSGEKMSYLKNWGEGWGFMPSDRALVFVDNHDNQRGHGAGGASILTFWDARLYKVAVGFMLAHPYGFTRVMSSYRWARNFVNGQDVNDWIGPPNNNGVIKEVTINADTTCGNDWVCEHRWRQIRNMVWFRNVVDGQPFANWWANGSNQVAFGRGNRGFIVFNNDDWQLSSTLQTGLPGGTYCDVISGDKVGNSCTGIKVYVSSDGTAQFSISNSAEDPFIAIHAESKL
Method: (§1) The extracts of Searsia species were screened to determine their inhibition activities with respect to enzymes relevant to the management of diabetes. The extracts were tested at 2.0 mg/mL.
(§2) The isolated compounds from the three plants were tested against alpha glucosidase and alpha amylase at 125.0 µg/mL to determine their inhibitory activities.
(§3) Standards (purity > 99.0%) for antioxidants, Trolox (6-hydroxyl-2,5,7,8-tetramethylchroman-2-carboxylic acid; Saarchem, Mumbai, India), and other reagents, including ABTS (2,2′-azino-bis (3-ethylbenzo thiazoline-6-sulfonic acid) diammonium salt (Sigma), potassium-peroxodisulphate (Merck), Ethanol (Saarchem), fluorescein sodium salt (Sigma), AAPH (2,2′-azobis (2-methylpropionamidine) dihydrochloride (Aldrich), Sodium dihydrogen orthophosphate dihydrate ([…], Merck), PCA (perchloric acid, Saarchem), TPTZ (2,4,6-tri[2-pyridyl]-s-triazine), iron (III) chloride hexahydrate, and copper sulphate, were purchased from Sigma-Aldrich, Inc. (St. Louis, MO, USA). L-Ascorbic acid was procured from Sigma Aldrich, Cape Town, South Africa. Antioxidant assays, including FRAP and TEAC assays, were performed using a Multiskan spectrum plate reader, while an automated ORAC assay was performed with a Floroskan spectrum plate reader. For the enzyme inhibition studies, α-glucosidase (Saccharomyces cerevisiae), α-amylase ([…]) and 3, 5, di-nitro salicylic acid (DNS), p-nitro-phenyl-α-D-glucopyranoside (p-NPG), sodium carbonate (Na2CO3), soluble starch, sodium dihydrogen phosphate, and disodium hydrogen phosphate were purchased from Sigma-Aldrich, South Africa.
The alpha amylase inhibitory assays of the extracts were carried out according to the standard method, with minor modifications. In a 96-well plate, the reaction mixture, containing 50 μL phosphate buffer (100 mM, pH = 6.8), 10 μL alpha amylase (2 U/mL), and 20 μL of plant extracts at 2.0 mg/mL, was preincubated at 37°C for 20 min. Then, 20 μL of 1% soluble starch (100 mM phosphate buffer pH 6.8) was added as a substrate and incubated further at 37 °C for 30 min; 100 μL of the DNS colour reagent was then added and boiled for 10 min. The absorbance of the resulting mixture was measured at 540 nm using a multiplate reader. […] The extracts or isolated compounds were measured in triplicate. The results were reported as half-maximal inhibitory (IC50) concentrations in μM. The results for both alpha amylase and alpha glucosidase were calculated using equation 1.

[4] = target: T2, α-glucosidase (Saccharomyces cerevisiae) (Saccharomyces cerevisiae, UniProt P53341); assay: Alpha glucosidase inhibitory activity; assay type: biochemical; settings: for IC50: IC50 on alpha glucosidase, concentrations 125.0-1.95 µg/mL, means ± SDs; for activity in screening against alpha glucosidase: isolated compounds tested at 125.0 µg/mL
T2 construct: purchased Sigma-Aldrich, South Africa
Method: as §1, §2, §3
The alpha glucosidase inhibitory activities of the extracts were determined according to the standard method, with minor modifications. In a 96-well plate, a reaction mixture containing 50 μL phosphate buffer (100 mM, pH = 6.8), 10 μL alpha glucosidase (1 U/mL), and 20 μL of extract at 2.0 mg/mL was pre-incubated at 37 °C for 15 min. Then, 20 μL P-NPG (5 mM) was added as a substrate and incubated further at 37 °C for 20 min. The reaction was stopped by adding 50 μL Na2CO3 (0.1 M). The absorbance of the released p-nitrophenol was measured at 405 nm using a Multiplate Reader. The results were reported as half-maximal inhibitory (IC50) concentrations in μM. […] Each extract was tested in triplicate. (1) Inhibitory activity (%)=1 − As/Ac×100 where As is the absorbance in the presence of the test substance and Ac is the absorbance of the control.

[5] = Ferric ion reducing antioxidant power (FRAP) assay; settings: means ± SDs; ascorbic acid equivalents; read at 593 nm
Method: The FRAP values were generated by comparing the absorbance changes in the test mixtures with those obtained from increasing concentrations of Fe^3+ and were expressed as µM AAE/g of the samples (Figure 3).
Preparation of the FRAP reagent in a 50 mL conical flask was composed of 30 mL Acetate buffer (300 mM, pH 3.6; 1.627 g Sodium acetate + 16 mL Glacial acetic acid and made up to 1 L with distilled water) + 3 mL TPTZ 10 mM solution (0.0093 g TPTZ and 3 mL of 40 mM HCl in 15 mL flask) + 3 mL FeCl3 solution (0.054 g FeCl3.6H2O and 10 mL distilled water) and 6.6 mL of distilled water. A control solution was prepared by dissolving 0.00352 g of Ascorbic acid in 50 mL, diluted to the mark with distilled water. A standard curve was prepared as per the method described by Benzie and Strain, 1996. L-Ascorbic acid (Sigma Aldrich, Cape Town, South Africa) was used as a standard, with concentrations varying between 0 and 1000 µM. Dilutions were made for the extracts that were highly concentrated, and dilution factors were noted and considered in calculations for the relevant extracts. In a 96-well clear microplate, 10 µL of the stock solutions of the extracts (hexane, dichloromethane, ethyl acetate, methanol, and butanol) of three plants were mixed with a 300 µL FRAP reagent. The plate was read at a wavelength of 593 nm in a multiplate reader. […]

T2 sequence (P53341 whole entry): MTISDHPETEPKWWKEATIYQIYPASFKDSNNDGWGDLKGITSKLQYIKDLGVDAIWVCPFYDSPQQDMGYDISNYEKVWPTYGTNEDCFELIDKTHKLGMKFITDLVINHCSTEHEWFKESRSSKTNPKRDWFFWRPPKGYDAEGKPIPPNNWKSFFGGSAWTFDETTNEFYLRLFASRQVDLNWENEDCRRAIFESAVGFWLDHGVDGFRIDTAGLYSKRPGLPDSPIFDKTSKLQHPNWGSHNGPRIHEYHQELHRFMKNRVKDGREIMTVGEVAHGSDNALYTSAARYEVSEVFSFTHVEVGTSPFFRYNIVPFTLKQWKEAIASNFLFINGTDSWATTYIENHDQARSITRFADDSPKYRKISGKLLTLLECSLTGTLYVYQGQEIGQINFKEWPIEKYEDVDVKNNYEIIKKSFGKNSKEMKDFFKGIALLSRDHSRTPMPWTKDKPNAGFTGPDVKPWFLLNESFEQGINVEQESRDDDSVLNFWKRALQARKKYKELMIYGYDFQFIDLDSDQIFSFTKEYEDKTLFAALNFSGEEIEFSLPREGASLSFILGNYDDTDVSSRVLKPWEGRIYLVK

Work on Cc1c(C)c2c(c(C)c1O)CCC(C)(C(=O)O)O2 (centres unmarked) [Trolox, 6-hydroxyl-2,5,7,8-tetramethylchroman-2-carboxylic acid] yielded an ORAC [1] of 14.2 ± 04.01 µM TE/g and a TEAC [2] of 205.01 ± 05.03 µM TE/g.

With O=c1cc(-c2ccc(O)c(-c3c(O)cc(O)c4c(=O)cc(-c5ccc(O)cc5)oc34)c2)oc2cc(O)cc(O)c12 [Compound C7, amentoflavone] the IC50 [3] was 36.8 µM, the “activity in screening against alpha amylase” value [3] was “showed activity” and the IC50 [4] was 10.3 µM. The “activity in screening against alpha glucosidase” value [4] was “showed activity”.

In the case of CC1(C)C=C2[C@H]3CC[C@@H]4[C@@]5(C)CCC(=O)C(C)(C)[C@@H]5CC[C@@]4(C)[C@]3(C)CC[C@@]2(C(=O)O)CC1 [Compound C1, moronic acid], the IC50 [3] is reported as 44.2 µM, the “activity in screening against alpha amylase” value [3] is reported as “showed activity” and the IC50 [4] is reported as 23.4 µM and 23.2 µM. For the same compound, the “activity in screening against alpha glucosidase” value [4] was “showed activity”.

O=C1O[C@H]([C@@H](O)CO)C(O)=C1O [Ascorbic acid, L-Ascorbic acid] gave an FRAP [5] of 390.12 ± 09.12 µM AAE/g.
